Test results: the supplement of paper PMC10307832

Experiments:
Assay in all cases: relative viability (nuclei count vs DMSO), 5 days (fraction); higher = more cells survive
HCC-827 = test system: HCC-827
Summary of the method: (§1)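 Lung cancer cell lines in 1536-well plates were dosed by pin tool the day after seeding, either with one drug alone or with a fixed anchor-drug dose plus five library-drug doses (not always all listed) in √10 steps. After 5 days, cells were fixed and their nuclei stained in one step (final 0.05% Triton X-100, 1% formaldehyde, 1 ug/ml Hoechst), then counted on 4× images. Relative viability is the nuclei count in treated wells divided by that in vehicle wells. Values are medians of duplicate plates.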

EPLC-272H = test system: EPLC-272H
Summary of the method: as §1

NCI-H2342 = test system: NCI-H2342
Summary of the method: as §1

SW 1573 = test system: SW 1573
Summary of the method: as §1

EKVX = test system: EKVX
Summary of the method: as §1

NCI-H647 = test system: NCI-H647
Summary of the method: as §1

LOU-NH91 = test system: LOU-NH91
Summary of the method: as §1

NCI-H1975 = test system: NCI-H1975
Summary of the method: as §1

NCI-H1437 = test system: NCI-H1437
Summary of the method: as §1

HCC-44 = test system: HCC-44
Summary of the method: as §1

H3255 = test system: H3255
Summary of the method: as §1

NCI-H650 = test system: NCI-H650
Summary of the method: as §1

NCI-H1666 = test system: NCI-H1666
Summary of the method: as §1

BEN = test system: BEN
Summary of the method: as §1

NCI-H2087 = test system: NCI-H2087
Summary of the method: as §1

COR-L 105 = test system: COR-L 105
Summary of the method: as §1

LU99A = test system: LU99A
Summary of the method: as §1

NCI-H2085 = test system: NCI-H2085
Summary of the method: as §1

LCLC-97TM1 = test system: LCLC-97TM1
Summary of the method: as §1

201T = test system: 201T
Summary of the method: as §1

NCI-H2170 = test system: NCI-H2170
Summary of the method: as §1

PC-3 [JPC-3] = test system: PC-3 [JPC-3]
Summary of the method: as §1

SMILES: O=c1cc(N2CCOCC2)oc2c(-c3cccc4c3sc3ccccc34)cccc12 + CC(=O)c1c(C)c2cnc(Nc3ccc(N4CCNCC4)cn3)nc2n(C2CCCC2)c1=O [Palbociclib] (partner 0.5 µM)
- relative viability (HCC-827; first compound 0.01 µM): 0.52
- relative viability (HCC-827; first compound 0.03162 µM): 0.485
- relative viability (HCC-827; first compound 0.1 µM): 0.457
- relative viability (HCC-827; first compound 0.3162 µM): 0.53
- relative viability (HCC-827; first compound 1 µM): 0.47
- relative viability (EPLC-272H; first compound 0.01 µM): 0.302
- relative viability (EPLC-272H; first compound 0.03162 µM): 0.31
- relative viability (EPLC-272H; first compound 0.1 µM): 0.274
- relative viability (EPLC-272H; first compound 0.3162 µM): 0.325
- relative viability (EPLC-272H; first compound 1 µM): 0.325
- relative viability (NCI-H2342; first compound 0.01 µM): 0.539
- relative viability (NCI-H2342; first compound 0.03162 µM): 0.502
- relative viability (NCI-H2342; first compound 0.1 µM): 0.537
- relative viability (NCI-H2342; first compound 0.3162 µM): 0.529
- relative viability (NCI-H2342; first compound 1 µM): 0.508
- relative viability (SW 1573; first compound 0.01 µM): 0.349
- relative viability (SW 1573; first compound 0.03162 µM): 0.436
- relative viability (SW 1573; first compound 0.1 µM): 0.408
- relative viability (SW 1573; first compound 0.3162 µM): 0.349
- relative viability (SW 1573; first compound 1 µM): 0.394
- relative viability (EKVX; first compound 0.01 µM): 0.376
- relative viability (EKVX; first compound 0.03162 µM): 0.363
- relative viability (EKVX; first compound 0.1 µM): 0.484
- relative viability (EKVX; first compound 0.3162 µM): 0.43
- relative viability (EKVX; first compound 1 µM): 0.332
- relative viability (NCI-H647; first compound 0.01 µM): 0.392
- relative viability (NCI-H647; first compound 0.03162 µM): 0.409
- relative viability (NCI-H647; first compound 0.1 µM): 0.387
- relative viability (NCI-H647; first compound 0.3162 µM): 0.364
- relative viability (NCI-H647; first compound 1 µM): 0.314
- relative viability (LOU-NH91; first compound 0.01 µM): 0.525
- relative viability (LOU-NH91; first compound 0.03162 µM): 0.527
- relative viability (LOU-NH91; first compound 0.1 µM): 0.522
- relative viability (LOU-NH91; first compound 0.3162 µM): 0.537
- relative viability (LOU-NH91; first compound 1 µM): 0.574
- relative viability (NCI-H1975; first compound 0.01 µM): 0.61
- relative viability (NCI-H1975; first compound 0.03162 µM): 0.609
- relative viability (NCI-H1975; first compound 0.1 µM): 0.626
- relative viability (NCI-H1975; first compound 0.3162 µM): 0.529
- relative viability (NCI-H1975; first compound 1 µM): 0.591
- relative viability (NCI-H1437; first compound 0.01 µM): 0.3
- relative viability (NCI-H1437; first compound 0.03162 µM): 0.312
- relative viability (NCI-H1437; first compound 0.1 µM): 0.282
- relative viability (NCI-H1437; first compound 0.3162 µM): 0.31
- relative viability (NCI-H1437; first compound 1 µM): 0.281
- relative viability (HCC-44; first compound 0.01 µM): 1.01
- relative viability (HCC-44; first compound 0.03162 µM): 1.02
- relative viability (HCC-44; first compound 0.1 µM): 0.955
- relative viability (HCC-44; first compound 0.3162 µM): 0.991
- relative viability (HCC-44; first compound 1 µM): 1.02
- relative viability (H3255; first compound 0.01 µM): 0.314
- relative viability (H3255; first compound 0.03162 µM): 0.325
- relative viability (H3255; first compound 0.1 µM): 0.306
- relative viability (H3255; first compound 0.3162 µM): 0.314
- relative viability (H3255; first compound 1 µM): 0.312
- relative viability (NCI-H650; first compound 0.01 µM): 0.348
- relative viability (NCI-H650; first compound 0.03162 µM): 0.383
- relative viability (NCI-H650; first compound 0.3162 µM): 0.356
- relative viability (NCI-H650; first compound 1 µM): 0.347
- relative viability (NCI-H1666; first compound 0.01 µM): 0.663
- relative viability (NCI-H1666; first compound 0.03162 µM): 0.593
- relative viability (NCI-H1666; first compound 0.1 µM): 0.709
- relative viability (NCI-H1666; first compound 0.3162 µM): 0.651
- relative viability (NCI-H1666; first compound 1 µM): 0.643
- relative viability (BEN; first compound 0.01 µM): 0.427
- relative viability (BEN; first compound 0.03162 µM): 0.476
- relative viability (BEN; first compound 0.1 µM): 0.476
- relative viability (BEN; first compound 0.3162 µM): 0.514
- relative viability (BEN; first compound 1 µM): 0.506
- relative viability (NCI-H2087; first compound 0.01 µM): 0.218
- relative viability (NCI-H2087; first compound 0.03162 µM): 0.245
- relative viability (NCI-H2087; first compound 0.1 µM): 0.221
- relative viability (NCI-H2087; first compound 0.3162 µM): 0.229
- relative viability (NCI-H2087; first compound 1 µM): 0.217
- relative viability (COR-L 105; first compound 0.01 µM): 0.41
- relative viability (COR-L 105; first compound 0.03162 µM): 0.468
- relative viability (COR-L 105; first compound 0.1 µM): 0.438
- relative viability (COR-L 105; first compound 0.3162 µM): 0.409
- relative viability (COR-L 105; first compound 1 µM): 0.386
- relative viability (LU99A; first compound 0.01 µM): 0.393
- relative viability (LU99A; first compound 0.03162 µM): 0.414
- relative viability (LU99A; first compound 0.1 µM): 0.414
- relative viability (LU99A; first compound 0.3162 µM): 0.379
- relative viability (LU99A; first compound 1 µM): 0.488
- relative viability (NCI-H2085; first compound 0.01 µM): 0.467
- relative viability (NCI-H2085; first compound 0.03162 µM): 0.455
- relative viability (NCI-H2085; first compound 0.1 µM): 0.492
- relative viability (NCI-H2085; first compound 0.3162 µM): 0.512
- relative viability (NCI-H2085; first compound 1 µM): 0.452
- relative viability (LCLC-97TM1; first compound 0.01 µM): 0.218
- relative viability (LCLC-97TM1; first compound 0.03162 µM): 0.194
- relative viability (LCLC-97TM1; first compound 0.1 µM): 0.241
- relative viability (LCLC-97TM1; first compound 0.3162 µM): 0.21
- relative viability (LCLC-97TM1; first compound 1 µM): 0.218
- relative viability (201T; first compound 0.01 µM): 0.346
- relative viability (201T; first compound 0.03162 µM): 0.356
- relative viability (201T; first compound 0.1 µM): 0.356
- relative viability (201T; first compound 0.3162 µM): 0.342
- relative viability (201T; first compound 1 µM): 0.353
- relative viability (NCI-H2170; first compound 0.01 µM): 0.424
- relative viability (NCI-H2170; first compound 0.03162 µM): 0.422
- relative viability (NCI-H2170; first compound 0.1 µM): 0.408
- relative viability (NCI-H2170; first compound 0.3162 µM): 0.405
- relative viability (NCI-H2170; first compound 1 µM): 0.371
- relative viability (PC-3 [JPC-3]; first compound 0.01 µM): 0.548
- relative viability (PC-3 [JPC-3]; first compound 0.03162 µM): 0.519
- relative viability (PC-3 [JPC-3]; first compound 0.1 µM): 0.306
- relative viability (PC-3 [JPC-3]; first compound 0.3162 µM): 0.557
- relative viability (PC-3 [JPC-3]; first compound 1 µM): 0.511
